{
  "source": "patent US20230330020A1",
  "about": "“MEDICATION THAT PROTECTS THE INTESTINAL MICROBIOTA AND THEIR PREPARATION METHODS AND APPLICATIONS” (priority 2020, published 2023)",
  "key": {"Streptococcus pneumoniae": {"test_system": "Streptococcus pneumoniae", "test": "Mouse pneumonia induced by intranasal Streptococcus pneumoniae, oral treatment", "assay_type": "in vivo, mice", "procedure": "In one implementation, the effectiveness of orally administered ampicillin wrapped in PGNPs for treating mouse pneumonia was validated. Firstly, we induced mouse pneumonia by intranasally administering Streptococcus pneumoniae. At 2 and 8 hours post-induction, the mice received either ampicillin encapsulated in PGNPs or free ampicillin treatment. At 24 hours post-infection, the number of Streptococcus pneumoniae in the mouse lungs and the proportion of neutrophil infiltration were analyzed.\nMice were divided into four groups, with two control groups receiving no ampicillin treatment and two treatment groups receiving ampicillin treatment after infection, with at least 3 mice per group. Mouse pneumonia was induced by intranasal inoculation of 3×10^8 CFUs of Streptococcus pneumoniae. After infection, mice were orally treated with either free ampicillin or PGNPs encapsulated with ampicillin (40 mg kg^−1) at 2 hours and 8 hours post-infection. After 24 hours of infection, the number of Streptococcus pneumoniae in the lungs was measured. Mouse lung tissues were collected and homogenized in sterile PBS, diluted 10-fold in PBS, and plated for colony counting. The proportion of neutrophil infiltration in the lungs of the mice was determined by staining the lung tissues with antibodies and analyzing with a flow cytometer."}, "[1]": {"test_system": "ampicillin resistance gene ampC", "test": "Real-time quantitative PCR of resistance gene ampC and total bacterial 16S rRNA in fecal DNA", "assay_type": "in vivo, mice", "details": "oral 20 mg kg^-1 once a day 5 days; feces; vs control", "procedure": "We orally administered PGNPs-encapsulated ampicillin and free ampicillin to 6-8 weeks old mice for 5 consecutive days, once a day, while the control group was not given any ampicillin treatment. At specific time points during and after the antibiotic treatment period, we collected fecal samples from the mice, extracted DNA, determined DNA concentration, diluted to 10 ng μL^−1, and analyzed the copy number of the ampicillin resistance gene ampC using real-time fluorescence quantitative PCR.\nMice were divided into four groups, with 6 mice in each group. The control group was not treated with antibiotics, while the experimental group was given free antibiotics or antibiotics encapsulated in PGNPs prepared as described above. The experimental group mice were orally administered ampicillin (20 mg kg^−1) and PGNPs- encapsulated ampicillin once a day for 5 consecutive days. At specific time points, mouse feces were collected, and total DNA was extracted from fecal samples, and the concentration was measured. Real-time quantitative PCR was used to amplify the ampicillin resistance gene ampC and the total bacterial 16S rRNA in fecal DNA, and the copy numbers of the two genes were calculated to determine the effect of the two different antibiotic treatments on the abundance of antibiotic-resistant bacteria in the gut."}, "[2]": {"test": "Loading rate (encapsulation efficiency) of antibiotics in PGNPs by double emulsion, single emulsion and dialysis", "assay_type": "physicochemical", "details": "hydrophobic antibiotics; Gluc-PEG-PLGA + cationic lipid", "excerpt": "In one implementation, we used a double-emulsification method to encapsulate hydrophilic antibiotics such as ampicillin and erythromycin, and measured an encapsulation efficiency of 50%-60%. Using a dialysis method, we encapsulated hydrophobic antibiotics such as metronidazole and achieved an encapsulation efficiency of 25%. Encapsulation of hydrophobic antibiotics such as metronidazole using a single-emulsification method yielded an encapsulation efficiency of 20%-40%. Various types of antibiotics with different properties can be encapsulated in nanoparticles using methods such as single-emulsification, double-emulsification, and dialysis, as shown in FIG. 3. The double-emulsification method yielded the highest encapsulation efficiency for hydrophilic antibiotics.\nFor hydrophilic antibiotics, such as ampicillin and vancomycin, the double emulsion method was used for loading. A water-soluble solution (100 mg mL^−1, 30 μL) of either ampicillin or vancomycin was added to 0.5 mL of dichloromethane containing 0.5 mg DOTAP and 5 mg glucose-PEG-PLGA. […] The concentration of the loaded antibiotics in the nanoparticles was measured using a UV spectrophotometer or HPLC. The loading rate was calculated by dividing the mass of loaded antibiotics by the total mass of antibiotics used for loading. […]"}, "[3]": {"details": "40 mg kg^-1 oral at 2 h and 8 h post-infection, 24 h, vs untreated group"}},
  "data": [
    {"compound": "CC1(C)S[C@@H]2[C@H](NC(=O)[C@H](N)c3ccccc3)C(=O)N2[C@H]1C(=O)O", "note": "[Free-Amp, ampicillin]", "values": [
      {"measurement": "neutrophil proportion in the lungs", "setting": "Streptococcus pneumoniae; [3]", "value": "significant decrease"},
      {"measurement": "number of lung Streptococcus pneumoniae", "setting": "Streptococcus pneumoniae; [3]", "value": "significant decrease"},
      {"measurement": "therapeutic effect on mouse pneumonia", "setting": "Streptococcus pneumoniae; oral at 2 and 8 hours post-induction, analysed at 24 hours", "value": "good therapeutic effects"},
      {"measurement": "copy number of gut bacterial resistance gene ampC", "setting": "[1]", "value": "increased sharply over time"}
    ]},
    {"compound": "Cc1ncc([N+](=O)[O-])n1CCO", "note": "[metronidazole]", "values": [
      {"measurement": "encapsulation efficiency, dialysis method", "setting": "[2]", "value": 25, "unit": "%"}
    ]}
  ]
}
